The assay concerns the target T1, P2X7 receptor (Homo sapiens, UniProt Q99572).
T1 construct: host or cells: SH-SY5Y
T1 sequence (Q99572 1-595): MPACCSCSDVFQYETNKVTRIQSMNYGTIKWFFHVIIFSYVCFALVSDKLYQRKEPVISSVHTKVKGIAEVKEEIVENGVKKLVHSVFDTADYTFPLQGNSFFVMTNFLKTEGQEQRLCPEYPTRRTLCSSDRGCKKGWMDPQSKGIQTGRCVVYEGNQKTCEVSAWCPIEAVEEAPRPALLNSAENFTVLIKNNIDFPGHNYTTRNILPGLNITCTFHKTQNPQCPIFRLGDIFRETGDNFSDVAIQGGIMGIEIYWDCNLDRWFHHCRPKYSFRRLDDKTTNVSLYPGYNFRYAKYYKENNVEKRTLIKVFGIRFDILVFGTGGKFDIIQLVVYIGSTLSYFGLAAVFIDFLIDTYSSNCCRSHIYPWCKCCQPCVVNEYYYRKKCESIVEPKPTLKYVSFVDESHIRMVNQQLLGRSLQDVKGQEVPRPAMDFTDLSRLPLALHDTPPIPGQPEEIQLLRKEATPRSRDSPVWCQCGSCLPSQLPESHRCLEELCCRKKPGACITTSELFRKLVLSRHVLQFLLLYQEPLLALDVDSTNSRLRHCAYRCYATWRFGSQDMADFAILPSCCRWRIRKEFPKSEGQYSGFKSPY
As to the kind of experiment: P2X7 calcium mobilization assay, high throughput, antagonist activity (Example 4A). Type of assay: cell-based. Particulars: 50% decrease in the fluorescence response of cells exposed to 80 μM of 2′(3′)-O-(4-benzoyl-benzoyl)adenosine 5′-triphosphate; determined as in Example 4A; read-out: IC50. In a few lines:
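Dye-loaded cells (100,000/well, seeded previous day) are pre-exposed to compound for an hour at room temperature. Fluorescence maxima are baseline-corrected against no-agonist wells and compared with the averaged agonist-well maximum.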

The structures appear in SMILES notation.

A word on the IC50: it is the midpoint of a concentration-inhibition curve. Consider `N[C@@H]1CCCN(C(=O)Cc2cn3c(C(=O)NCC4(c5cccnc5)CCCCC4)cccc3n2)C1` [Compound 947, 2-{2-[(3R)-3-aminopiperidin-1-yl]-2-oxoethyl}-N-[(1-pyridin-3-ylcyclohexyl)methyl] imidazo[1,2-a] pyridine-5-carboxamide], for which the IC50 is less than 2 µM.

For the compound `Cc1ccc(C2(CNC(=O)c3cccc4nc(CC(=O)N5CCC[C@@H](N)C5)cn34)CCCCC2)cn1` [Compound 948, 2-{2-[(3R)-3-amino-piperidin-1-yl]-2-oxoethyl}-N-{[1-(6-methylpyridin-3-yl)cyclohexyl]methyl} imidazo[1,2-a] pyridine-5-carboxamide], the IC50 is less than 2 µM.

With `O=C(O)Cc1cn2c(C(=O)NCC3(c4ccc(Cl)cc4)CCCCC3)cccc2n1` [Compound 949, [5-({[1-(4-chlorophenyl)cyclohexyl]methyl}carbamoyl)imidazo[1,2-a]pyridin-2-yl]acetic acid], the IC50 was less than 2 µM.

Turning to `COc1ccc(C2(CNC(=O)c3cccc4nc(CC(=O)N[C@@H]5CCN(C(=O)OC(C)(C)C)C5)cn34)CCCCC2)cc1` [Compound 950, tert-butyl (3R)-3-({[5-({[1-(4-methoxyphenyl)cyclohexyl]methyl}carbamoyl)imidazo [1,2-a]pyridin-2-yl]acetyl}amino) pyrrolidine-1-carboxylate], the IC50 was less than 2 µM.

On to `CCCC(CNC(=O)c1cccc2nc(CC(=O)N[C@@H]3CCNC3)cn12)c1ccc(Cl)cc1` (stereo partly drawn) [Compound 951, N-[2-(4-chlorophenyl)pentyl]-2-{2-oxo-2-[(3R)-pyrrolidin-3-ylamino]ethyl} imidazo[1,2-a] pyridine-5-carboxamide], for which the IC50 is less than 2 µM.

Take `COc1ccc(C2(CNC(=O)c3cccc4nc(CC(=O)N[C@@H]5CCNC5)cn34)CCCCC2)cc1` [Compound 952, N-{[1-(4-methoxyphenyl)cyclohexyl]methyl}-2-{2-oxo-2-[(3R)-pyrrolidin-3-ylamino]ethyl}imidazo[1,2-a]pyridine-5-carboxamide]: the IC50 is less than 2 µM.

Turning to `O=C(NCC12CC3CC(CC(C3)C1)C2)c1cccc2nc([C@H]3CC[C@@H](C(=O)O)CC3)cn12` [Compound 954, cis-4-{5-[(adamantan-1-ylmethyl)carbamoyl]imidazo[1,2-a]pyridin-2-yl} cyclohexane-carboxylic acid], the IC50 was less than 2 µM.

In the case of `NC(=O)c1cccc(NC(=O)Cc2cn3c(C(=O)NCC4CCCCCC4)cccc3n2)c1` [Compound 955, 2-{2-[(3-carbamoylphenyl)amino]-2-oxoethyl}-N-(cycloheptylmethyl) imidazo[1,2-a] pyridine-5-carboxamide], the concentration for half-maximal inhibition (IC50) is less than 2 µM.

Turning to `CNC(=O)c1ccc(NC(=O)Cc2cn3c(C(=O)NCC4CCCCCC4)cccc3n2)cc1` [Compound 957, N-(cycloheptylmethyl)-2-(2-{[4-(methylcarbamoyl)phenyl]amino}-2-oxoethyl) imidazo[1,2-a] pyridine-5-carboxamide], the IC50 was less than 2 µM.

With `NC(=O)COc1cccc(NC(=O)Cc2cn3c(C(=O)NCC4CCCCCC4)cccc3n2)c1` [Compound 958, 2-(2-{[3-(2-amino-2-oxoethoxy)phenyl]amino}-2-oxoethyl)-N-(cycloheptylmethyl) imidazo[1,2-a] pyridine-5-carboxamide], the IC50 was less than 2 µM.

For the compound `CC(C)CC(CNC(=O)c1cccc2nc(CC(=O)N[C@@H]3CCNC3)cn12)c1ccc(Cl)cc1` (stereo partly drawn) [Compound 960, N-[2-(4-chlorophenyl)-4-methylpentyl]-2-{2-oxo-2-[(3R)-pyrrolidin-3-ylamino]ethyl} imidazo[1,2-a] pyridine-5-carboxamide], the IC50 was less than 2 µM.

With `O=C(Cc1cn2c(C(=O)NCC3(c4ccc(Cl)cc4)CCCCC3)cccc2n1)N[C@@H]1CCNC1` [Compound 961, N-{[1-(4-chlorophenyl)cyclohexyl]methyl}-2-{2-oxo-2-[(3R)-pyrrolidin-3-ylamino]ethyl} imidazo [1,2-a]pyridine-5-carboxamide], the IC50 was less than 2 µM.

With `O=C(O)Cc1cn2c(C(=O)NCC3(c4ccc(C(F)(F)F)cc4)CCCCC3)cccc2n1` [Compound 963, {5-[({1-[4-(trifluoromethyl)phenyl]cyclohexyl}methyl)carbamoyl]imidazo[1,2-a]pyridin-2-yl}acetic acid], the IC50 was less than 2 µM.

Take `CC(C)CC(CNC(=O)c1cccc2nc(CC(=O)O)cn12)c1ccc(Cl)cc1` (centres unmarked) [Compound 964, (5-{[2-(4-chlorophenyl)-4-methylpentyl]carbamoyl}imidazo[1,2-a]pyridin-2-yl) acetic acid]: the IC50 was less than 2 µM.

With `CC(C)CC(CNC(=O)c1cccc2nc(CC(=O)O)cn12)c1ccc(C(F)(F)F)cc1` (centres unmarked) [Compound 965, [5-({4-methyl-2-[4-(trifluoromethyl)phenyl]pentyl}carbamoyl)imidazo[1,2-a]pyridin-2-yl] acetic acid], the IC50 is less than 2 µM.

Turning to `CCCCCCCC(CNC(=O)c1cccc2nc(CC(=O)O)cn12)c1ccccc1` (centres unmarked) [Compound 966, {5-[(2-phenylnonyl)carbamoyl]imidazo[1,2-a]pyridin-2-yl} acetic acid], the IC50 is less than 2 µM.

In the case of `CC(C)CC(CNC(=O)c1cccc2nc(CC(=O)N[C@@H]3CCN(C(=O)OC(C)(C)C)C3)cn12)c1ccc(Cl)cc1` (some centres unmarked) [Compound 967, tert-butyl 3-{[(5-{[2-(4-chlorophenyl)-4-methylpentyl]carbamoyl}imidazo[1,2-a]pyridin-2-yl)acetyl]amino} pyrrolidine-1-carboxylate], the IC50 is less than 2 µM.

Turning to `CC(C)(C)OC(=O)N1CC[C@@H](NC(=O)Cc2cn3c(C(=O)NCC4(c5ccc(Cl)cc5)CCCCC4)cccc3n2)C1` [Compound 968, tert-butyl (3R)-3-({[5-({[1-(4-chlorophenyl)cyclohexyl]methyl}carbamoyl)imidazo[1,2-a]pyridin-2-yl]acetyl}amino) pyrrolidine-1-carboxylate], the IC50 was less than 2 µM.

For the compound `CC(C)CC(CNC(=O)c1cccc2nc(C3CCC(C(=O)O)CC3)cn12)c1ccc(Cl)cc1` (centres unmarked) [Compound 969, 4-(5-{[2-(4-chlorophenyl)-4-methylpentyl]carbamoyl}imidazo[1,2-a]pyridin-2-yl)cyclohexane-carboxylic acid], the IC50 was less than 2 µM.

Turning to `O=C(Cc1cn2c(C(=O)NCCc3ccccc3)cccc2n1)NCC12CC3CC(CC(C3)C1)C2` [Compound 972, 2-{2-[(adamantan-1-ylmethyl)amino]-2-oxoethyl}-N-(2-phenylethyl)imidazo[1,2-a]pyridine-5-carboxamide], the IC50 was less than 2 µM.

In the case of `O=C(Cc1cn2c(C(=O)NC3CCCCC3)cccc2n1)NCC12CC3CC(CC(C3)C1)C2` [Compound 973, 2-{2-[(adamantan-1-ylmethyl)amino]-2-oxoethyl}-N-cyclohexylimidazo[1,2-a]pyridine-5-carboxamide], the IC50 was less than 2 µM.

With `CC(C)CC(CNC(=O)Cc1cn2c(C(=O)NC3CCCCC3)cccc2n1)c1ccc(Cl)cc1` (centres unmarked) [Compound 975, 2-(2-{[2-(4-chlorophenyl)-4-methylpentyl]amino}-2-oxoethyl)-N-cyclohexylimidazo [1,2-a]pyridine-5-carboxamide], the IC50 is less than 2 µM.

`O=C(Cc1cn2c(C(=O)NCC3CCCCC3)cccc2n1)NCC1(c2ccc(Cl)cc2)CCCCC1` [Compound 978, 2-[2-({[1-(4-chlorophenyl)cyclohexyl]methyl}amino)-2-oxoethyl]-N-(cyclohexylmethyl) imidazo[1,2-a] pyridine-5-carboxamide]: the IC50 is less than 2 µM.

Values taken from patent US8431593B2, “Heteroaryl amide derivatives” (H. Lundbeck A/S, priority 2006, dated 2013).
